The values that follow come from US20230248834A1, “DEGRADATION OF (EGFR) BY CONJUGATION OF EGFR INHIBITORS WITH E3 LIGASE LIGAND AND METHODS OF USE” (BEIGENE, LTD., priority 2020, published 2023).

The target of test [1] is T1, EGFR L858R/T790M/C797S (Homo sapiens, UniProt P00533, C797S/L858R/T790M).
T1 construct: expressed in transfected cells; host or cells: BaF3-LTC
In words: EGFR degradation HTRF assay in BaF3-LTC cells. The format is cell-based. The following applies: BaF3-LTC (L858R/T790M/C797S), maximum percentage of inhibition (degradation); read-out: BaF3-LTC Dmax (%). An outline of the steps: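 BaF3 cells expressing EGFR L858R/C797S or L858R/T790M/C797S treated 16 h at 37 °C with compounds (top 10 uM, 5-fold, 8 doses; 0.2% DMSO). Remaining EGFR quantified by HTRF in lysates after overnight antibody incubation. Degradation percentage versus DMSO controls; DC50 from four-parameter fit, Dmax as maximal degradation.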

The target in test [2] is T2, EGFR L858R/C797S (Homo sapiens, UniProt P00533, C797S/L858R).
T2 construct: expressed in transfected cells; host or cells: BaF3 LC
Nature of the test: EGFR degradation HTRF assay in BaF3 LC cells. Type of test: cell-based. The following applies: BaF3 LC (L858R/C797S), maximum percentage of inhibition (degradation); read-out: BaF3 LC Dmax (%). How it is done:
BaF3-LTC(L858R/T790M/C797S) cells and BaF3 LC(L858R/C797S) cells are treated with compounds diluted in 0.2% DMSO cell culture medium and incubate for 16 h, 37° C., 5% CO2. the final concentration of compounds in all assay is start with 10 uM, 5-fold dilution, total 8 doses were included.
After 16 h treatment, add HTRF lysis buffer to each well; seal the plate and incubate 1 hour at room temperature on a plate shaker; Once the cells are lysed, 16 μL of cell lysate are transferred to a PE 384-well HTRF detection plate; 4 μL of pre-mixed HTRF antibodies are added to each well; Cover the plate with a plate sealer, spin 1000 rpm for 1 min, Incubate overnight at room temperature; Read on BMG PheraStar with HTRF protocol (337 nm-665 nm-620 nm).
The inhibition (degradation) percentage of the compound was calculated by the following equation: Inhibition percentage of Compound=100−100×(Signal−low control)/(High control−low control), wherein signal=each test compound group
High control=Cell group with added DMSO and without compound, indicating microplate readings without EGFR degradation;
Dmax is the maximum percentage of inhibition (degradation).
The IC50 (DC50) value of a compound can be obtained by fitting the following equation
Y=Bottom+(TOP−Bottom)/(1+((IC50/X)^hillslope))
Wherein, X and Y are known values, and IC50, Hillslope, Top and Bottom are the parameters obtained by fitting with software. Y is the inhibition percentage (calculated from the equation), X is the concentration of the compound; IC50 is the concentration of the compound when the 50% inhibition is reached. The smaller the IC50 value is, the stronger the inhibitory ability of the compound is. Vice versa, the higher the IC50 value is, the weaker the inhibitory ability of the compound is; Hillslope represents the slope of the fitted curve, generally around 1*; Bottom represents the minimum value of the curve obtained by data fitting, which is generally 0%±20%; Top represents the maximum value of the curve obtained by data fitting, which is generally 100%±20%. The experimental data were fitted by calculating and analyzing with Dotmatics data analysis software.
(In TR-FRET formats the signal depends on donor and acceptor labels being close together.)

Molecules are shown by their SMILES.

T1 sequence (P00533 25-1210 T790M/C797S/L858R): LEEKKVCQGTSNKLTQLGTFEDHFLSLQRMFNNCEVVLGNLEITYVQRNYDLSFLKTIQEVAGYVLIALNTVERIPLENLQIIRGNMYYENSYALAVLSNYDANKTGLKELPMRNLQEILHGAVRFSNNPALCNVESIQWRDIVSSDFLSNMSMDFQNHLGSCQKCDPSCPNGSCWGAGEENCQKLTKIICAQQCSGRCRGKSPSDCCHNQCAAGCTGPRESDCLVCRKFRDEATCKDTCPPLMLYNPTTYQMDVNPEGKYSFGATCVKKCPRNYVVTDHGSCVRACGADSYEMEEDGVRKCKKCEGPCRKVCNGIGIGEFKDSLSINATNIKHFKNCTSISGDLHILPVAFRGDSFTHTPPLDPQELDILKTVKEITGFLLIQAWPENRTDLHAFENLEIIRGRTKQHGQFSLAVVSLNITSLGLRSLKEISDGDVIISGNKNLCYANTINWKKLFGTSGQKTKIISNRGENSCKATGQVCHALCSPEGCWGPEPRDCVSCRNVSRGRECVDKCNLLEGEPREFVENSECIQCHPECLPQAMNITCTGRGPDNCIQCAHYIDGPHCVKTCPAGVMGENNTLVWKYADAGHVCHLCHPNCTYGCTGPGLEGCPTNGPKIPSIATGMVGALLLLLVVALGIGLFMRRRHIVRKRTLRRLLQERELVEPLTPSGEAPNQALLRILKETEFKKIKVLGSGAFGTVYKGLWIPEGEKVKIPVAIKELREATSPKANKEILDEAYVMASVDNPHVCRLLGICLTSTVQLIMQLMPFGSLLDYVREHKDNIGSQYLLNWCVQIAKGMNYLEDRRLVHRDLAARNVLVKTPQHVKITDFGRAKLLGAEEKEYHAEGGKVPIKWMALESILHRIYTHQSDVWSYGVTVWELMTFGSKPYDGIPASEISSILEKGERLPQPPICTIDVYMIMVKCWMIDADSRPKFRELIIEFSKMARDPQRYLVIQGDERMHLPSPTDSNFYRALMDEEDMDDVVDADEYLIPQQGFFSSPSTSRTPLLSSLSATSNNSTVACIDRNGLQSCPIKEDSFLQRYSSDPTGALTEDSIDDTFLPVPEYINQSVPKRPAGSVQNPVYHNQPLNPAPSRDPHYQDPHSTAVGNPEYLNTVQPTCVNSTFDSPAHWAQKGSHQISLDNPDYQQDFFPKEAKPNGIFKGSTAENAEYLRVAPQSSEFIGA
T2 sequence (P00533 25-1210 C797S/L858R): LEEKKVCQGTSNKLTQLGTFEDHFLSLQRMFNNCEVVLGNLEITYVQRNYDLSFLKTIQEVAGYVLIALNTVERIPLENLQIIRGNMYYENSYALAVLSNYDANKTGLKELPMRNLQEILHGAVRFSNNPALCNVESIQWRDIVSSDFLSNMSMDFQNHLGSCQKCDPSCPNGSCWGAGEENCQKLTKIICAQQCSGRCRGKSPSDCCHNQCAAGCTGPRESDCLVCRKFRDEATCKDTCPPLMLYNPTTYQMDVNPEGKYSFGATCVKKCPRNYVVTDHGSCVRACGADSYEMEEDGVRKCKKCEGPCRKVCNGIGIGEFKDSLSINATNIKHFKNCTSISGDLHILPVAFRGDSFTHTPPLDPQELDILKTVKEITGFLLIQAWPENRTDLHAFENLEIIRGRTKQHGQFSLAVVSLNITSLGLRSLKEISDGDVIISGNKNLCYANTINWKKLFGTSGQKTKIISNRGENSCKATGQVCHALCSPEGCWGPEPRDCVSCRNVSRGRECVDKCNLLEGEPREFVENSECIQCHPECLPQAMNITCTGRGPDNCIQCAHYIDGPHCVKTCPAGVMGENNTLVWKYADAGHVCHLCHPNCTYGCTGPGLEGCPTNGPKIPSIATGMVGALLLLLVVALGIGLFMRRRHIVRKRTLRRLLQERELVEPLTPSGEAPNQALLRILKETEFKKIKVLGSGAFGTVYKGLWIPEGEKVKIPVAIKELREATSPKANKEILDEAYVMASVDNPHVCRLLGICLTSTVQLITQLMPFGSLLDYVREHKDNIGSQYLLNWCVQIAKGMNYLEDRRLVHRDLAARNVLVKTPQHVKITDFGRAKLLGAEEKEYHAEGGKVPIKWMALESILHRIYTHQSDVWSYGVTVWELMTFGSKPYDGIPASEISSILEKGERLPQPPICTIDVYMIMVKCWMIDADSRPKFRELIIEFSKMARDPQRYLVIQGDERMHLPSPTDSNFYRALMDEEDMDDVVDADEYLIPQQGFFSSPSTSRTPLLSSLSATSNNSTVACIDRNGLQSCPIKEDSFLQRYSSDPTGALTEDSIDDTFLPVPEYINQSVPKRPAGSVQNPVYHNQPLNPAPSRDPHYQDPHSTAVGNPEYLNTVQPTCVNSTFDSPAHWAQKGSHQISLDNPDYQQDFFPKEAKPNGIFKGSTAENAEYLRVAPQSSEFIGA

As a reminder, the Dmax is the largest share of the target that was removed. With `CCOc1cc(N2CCC(N3CCN(CCc4cc(F)cc5c4n(C)c(=O)n5C4CCC(=O)NC4=O)CC3)CC2)c(CC)cc1Nc1ncc(Br)c(Nc2ccc3nc(CC)ccc3c2P(C)(C)=O)n1` (centres unmarked) [Example 462, 3-(4-(2-(4-(1-(4-((5-bromo-4-((5-(dimethylphosphoryl)-2-ethylquinolin-6-yl)amino)pyrimidin-2-yl)amino)-5-ethoxy-2-ethylphenyl)piperidin-4-yl)piperazin-1-yl)ethyl)-6-fluoro-3-methyl-2-oxo-2,3-dihydro-1H-benzo[d]imidazol-1-yl)piperidine-2,6-dione], the Dmax came to 84.5% in test [1] and 89.9% in test [2].
For `CCOc1cc(N2CCC(N3CCN(CCc4cc(F)c([C@H]5CCC(=O)NC5=O)c(F)c4)CC3)CC2)c(CC)cc1Nc1ncc(Br)c(Nc2cc(F)c3nc(CC)ccc3c2P(C)(C)=O)n1` [Example 486, (R)-3-(4-(2-(4-(1-(4-((5-bromo-4-((5-(dimethylphosphoryl)-2-ethyl-8-fluoroquinolin-6-yl)amino)pyrimidin-2-yl)amino)-5-ethoxy-2-ethylphenyl)piperidin-4-yl)piperazin-1-yl)ethyl)-2,6-difluorophenyl)piperidine-2,6-dione], in that order: 87.8% and 87.8%.
Consider `CCc1ncc2c(P(C)(C)=O)c(Nc3nc(Nc4cc(CC)c(N5CCC(N6CCN(C(=O)[C@@H]7CCN(c8cc(F)c([C@H]9CCC(=O)NC9=O)c(F)c8)C7)CC6)CC5)cc4OC)ncc3Br)ccc2n1` [Example 549, (R)-3-(4-((R)-3-(4-(1-(4-((5-bromo-4-((5-(dimethylphosphoryl)-2-ethylquinazolin-6-yl)amino)pyrimidin-2-yl)amino)-2-ethyl-5-methoxyphenyl)piperidin-4-yl)piperazine-1-carbonyl)pyrrolidin-1-yl)-2,6-difluorophenyl)piperidine-2,6-dione], for which the Dmax in test [1] stood at 90.4%; in test [2] it was 87.2%.
For the compound `CCc1cc(Nc2ncc(Br)c(Nc3ccc4nc(C)ccc4c3P(C)(C)=O)n2)c(OC)cc1N1CCC(N2CCN(C(=O)[C@H]3CN(c4cc(F)c([C@H]5CCC(=O)NC5=O)c(F)c4)CC3(C)C)CC2)CC1` [Example 487, (R)-3-(4-((R)-4-(4-(1-(4-((5-bromo-4-((5-(dimethylphosphoryl)-2-methylquinolin-6-yl)amino)pyrimidin-2-yl)amino)-2-ethyl-5-methoxyphenyl)piperidin-4-yl)piperazine-1-carbonyl)-3,3-dimethylpyrrolidin-1-yl)-2,6-difluorophenyl)piperidine-2,6-dione], the Dmax in test [1] amounted to 98%; in test [2], 95.6%.
As to `CCOc1cc(N2CCC(N3CCN(CCc4cccc5c4n(C)c(=O)n5C4CCC(=O)NC4=O)CC3)CC2)c(CC)cc1Nc1ncc(Br)c(Nc2ccc3nc(CC)ccc3c2P(C)(C)=O)n1` (centres unmarked) [Example 752, 3-(4-(2-(4-(1-(4-((5-bromo-4-((5-(dimethylphosphoryl)-2-ethylquinolin-6-yl)amino)pyrimidin-2-yl)amino)-5-ethoxy-2-ethylphenyl)piperidin-4-yl)piperazin-1-yl)ethyl)-3-methyl-2-oxo-2,3-dihydro-1H-benzo[d]imidazol-1-yl)piperidine-2,6-dione], the results for the Dmax in test [1] and in test [2] were 94.7% and 94%, respectively.
In the case of `CCOc1cc(N2CCC(N3CCN(CCc4cccc5c4n(CC)c(=O)n5C4CCC(=O)NC4=O)CC3)CC2)c(CC)cc1Nc1ncc(Br)c(Nc2ccc3nc(CC)ccc3c2P(C)(C)=O)n1` (centres unmarked) [Example 504, 3-(4-(2-(4-(1-(4-((5-bromo-4-((5-(dimethylphosphoryl)-2-ethylquinolin-6-yl)amino)pyrimidin-2-yl)amino)-5-ethoxy-2-ethylphenyl)piperidin-4-yl)piperazin-1-yl)ethyl)-3-ethyl-2-oxo-2,3-dihydro-1H-benzo[d]imidazol-1-yl)piperidine-2,6-dione], the Dmax in test [1] was 89%; in test [2], 86%.
For `CCOc1cc(N2CCC(N3CCN(CCc4cccc5c4C4(CC4)C(=O)N5C4CCC(=O)NC4=O)CC3)CC2)c(CC)cc1Nc1ncc(Br)c(Nc2ccc3nc(CC)ccc3c2P(C)(C)=O)n1` (centres unmarked) [Example 571, 3-(4′-(2-(4-(1-(4-((5-bromo-4-((5-(dimethylphosphoryl)-2-ethylquinolin-6-yl)amino)pyrimidin-2-yl)amino)-5-ethoxy-2-ethylphenyl)piperidin-4-yl)piperazin-1-yl)ethyl)-2′-oxospiro[cyclopropane-1,3′-indolin]-1′-yl)piperidine-2,6-dione], in that order: 93.2% and 87.7%.
Take `CCc1cc(Nc2ncc(Br)c(Nc3ccc4nc(C)ccc4c3P(C)(C)=O)n2)c(OC)cc1N1CCC(N2CCN(C(=O)[C@@H]3CCN(c4cc(F)c([C@H]5CCC(=O)NC5=O)c(F)c4)C3)CC2)CC1` [Example 750, (R)-3-(4-((R)-3-(4-(1-(4-((5-bromo-4-((5-(dimethylphosphoryl)-2-methylquinolin-6-yl)amino)pyrimidin-2-yl)amino)-2-ethyl-5-methoxyphenyl)piperidin-4-yl)piperazine-1-carbonyl)pyrrolidin-1-yl)-2,6-difluorophenyl)piperidine-2,6-dione]: the Dmax in test [1] stood at 95.4%; in test [2], 94.3%.
For `CCOc1cc(N2CCC(N3CCN(CCc4cccc5c4oc(=O)n5C4CCC(=O)NC4=O)CC3)CC2)c(CC)cc1Nc1ncc(Br)c(Nc2ccc3nc(CC)ccc3c2P(C)(C)=O)n1` (centres unmarked) [Example 473, 3-(7-(2-(4-(1-(4-((5-bromo-4-((5-(dimethylphosphoryl)-2-ethylquinolin-6-yl)amino)pyrimidin-2-yl)amino)-5-ethoxy-2-ethylphenyl)piperidin-4-yl)piperazin-1-yl)ethyl)-2-oxobenzo[d]oxazol-3(2H)-yl)piperidine-2,6-dione], the Dmax in test [1] was determined as 94.6%; in test [2], 85.5%.
With `CCc1cc(Nc2ncc(Br)c(Nc3ccc4c(=O)n(CC)ncc4c3P(C)(C)=O)n2)c(OC)cc1N1CCC(N2CCN(CCc3cc(F)c([C@H]4CCC(=O)NC4=O)c(F)c3)CC2)CC1` [Example 753, (R)-3-(4-(2-(4-(1-(4-((5-bromo-4-((5-(dimethylphosphoryl)-2-ethyl-1-oxo-1,2-dihydrophthalazin-6-yl)amino)pyrimidin-2-yl)amino)-2-ethyl-5-methoxyphenyl)piperidin-4-yl)piperazin-1-yl)ethyl)-2,6-difluorophenyl)piperidine-2,6-dione], the figures for the Dmax in test [1] and in test [2] were 93.2% and 88.9%, respectively.
Turning to `CCOc1cc(N2CCC(N3CCN(CCc4cccc5c4C(C)(C)C(=O)N5C4CCC(=O)NC4=O)CC3)CC2)c(CC)cc1Nc1ncc(Br)c(Nc2ccc3c(=O)n(CC)ncc3c2P(C)(C)=O)n1` (centres unmarked) [Example 501, 3-(4-(2-(4-(1-(4-((5-bromo-4-((5-(dimethylphosphoryl)-2-ethyl-1-oxo-1,2-dihydrophthalazin-6-yl)amino)pyrimidin-2-yl)amino)-5-ethoxy-2-ethylphenyl)piperidin-4-yl)piperazin-1-yl)ethyl)-3,3-dimethyl-2-oxoindolin-1-yl)piperidine-2,6-dione], the Dmax in test [1] is 83.5%; in test [2], 93.5%.
`CCc1ccc2c(P(C)(C)=O)c(Nc3nc(Nc4cc(CC)c(N5CCC(N6CCN(CCc7cc(F)c([C@H]8CCC(=O)NC8=O)c(F)c7)CC6)CC5)cc4OC)ncc3Br)ccc2n1` [Example 484, (R)-3-(4-(2-(4-(1-(4-((5-bromo-4-((5-(dimethylphosphoryl)-2-ethylquinolin-6-yl)amino)pyrimidin-2-yl)amino)-2-ethyl-5-methoxyphenyl)piperidin-4-yl)piperazin-1-yl)ethyl)-2,6-difluorophenyl)piperidine-2,6-dione]: the Dmax is 95.4% in test [1] and 91.6% in test [2].
The like results for `CCc1ccc2c(P(C)(C)=O)c(Nc3nc(Nc4cc(CC)c(N5CCC(N6CCN(C(=O)[C@@H]7CCN(c8cc(F)c([C@H]9CCC(=O)NC9=O)c(F)c8)C7)CC6)CC5)cc4OC)ncc3Br)ccc2n1` [Example 489, (R)-3-(4-((R)-3-(4-(1-(4-((5-bromo-4-((5-(dimethylphosphoryl)-2-ethylquinolin-6-yl)amino)pyrimidin-2-yl)amino)-2-ethyl-5-methoxyphenyl)piperidin-4-yl)piperazine-1-carbonyl)pyrrolidin-1-yl)-2,6-difluorophenyl)piperidine-2,6-dione] were, in that order, 98.6% and 86.6%.
